Results taken from ChEMBL document CHEMBL1141050, “Design and synthesis of a novel peptidomimetic inhibitor of HIV-1 Tat-TAR interactions: squaryldiamide as a new potential bioisostere of unsubstituted guanidine” (Bioorg Med Chem Lett, 2005).

How the values were obtained:
Parameters in all cases: species or system Human immunodeficiency virus 1
[1] = target: T1, Protein Tat (Human immunodeficiency virus type 1 group M subtype B (isolate HXB2)(HIV-1), UniProt P04608); experiment: In vitro binding affinity towards Tat/TAR to determine interaction between TAR RNA and Tat peptide at room temperature using fluorescence spectrophotometer; nb denotes no binding
T1 sequence (P04608 whole entry): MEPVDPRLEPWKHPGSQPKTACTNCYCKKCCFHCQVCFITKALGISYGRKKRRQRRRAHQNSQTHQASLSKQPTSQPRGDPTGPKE

[2] = target: T1, Protein Tat; experiment: In vitro binding affinity towards Tat/TAR to determine interaction between TAR RNA and Tat peptide at room temperature using fluorescence spectrophotometer
[3] = target: T1, Protein Tat; experiment: In vitro binding affinity towards Tat/TAR to determine interaction between TAR RNA and Tat peptide at room temperature using fluorescence spectrophotometer; mb denotes multiple binding

SMILES	Kd [2] [µM]	also measured
NCCCC[C@H](COC(N)=O)NC(=O)CN(CCCCN)C(=O)OCCN	–	Kd [1]: Not Active
N=c1c(O)c(O)/c1=N/CCC[C@H](N)COC(=O)N(CCCCN)CC(=O)N[C@H](CCCCN)COC(N)=O	7.7	–
N=C(N)NCCC[C@H](N)COC(=O)N(CCCCN)CC(=O)N[C@H](CCCCN)COC(N)=O	1.8	–
N=c1c(O)c(O)/c1=N\CCCC(N)COC(=O)NC(CCCN=C(N)N)COC(N)=O (configuration not stated)	741	–
NCCCC[C@H](COC(N)=O)NC(=O)CN(CCCCN)C(=O)OC[C@@H](N)CCCN=C(N)N[N+](=O)[O-]	952	–
N=c1c(O)c(O)/c1=N\CCCC(N)COC(=O)NC(CCCCN)COC(N)=O (configuration not stated)	–	Kd [1]: Not Active
NC(=O)OCCNC(=O)CNC(=O)OC[C@@H](N)CCCN=C(N)N	–	Kd [3]: Multiple binding
